Experimental data published in patent publication US20260085081A1, “PHOSPHATIDYLAMINE COMPOUNDS INCLUDING A PLURALITY OF TERTIARY AMINO GROUP STRUCTURES AND COMPOSITIONS THEREOF” (PEKING UNIVERSITY, priority 2022, published 2026).

Tests used:
NIH-3T3 cells = experiment: Transfection efficiency of lipid nanoparticles in NIH-3T3 cells; format: cell-based, murine
Method: The prepared cationic compounds (PL1, PL4, PL8, PL10, PL11, PL12, PL13, PL14, PL17, PL18, PL23, PL24, PL26, PL27, PL28, PL29, PL30, PL31, PL32, PL33, PL36, PL38, PL41, PL44, PL45, PL53, PL54, PL55, PL56, PL57, PL58, PL59, PL60, PL61, PL78, PL79, PL93, PL94, PL95, PL96, PL97, PL103), DOPE/DSPC, cholesterol, and DMG-PEG2000 are prepared with ethanol in a molar ratio of 35:16:46.5:2.5 to form the ethanol phase, and RNA is formulated into the aqueous phase with 50 mM citrate buffer solution at pH=4. Lipid nanoparticles are obtained by microfluidic mixing at aqueous phase:ethanol phase=3:1 (v/v), followed by dialysis purification in PBS at pH 7.4 overnight to remove ethanol.
(§1) Determination process included: preparing a 96-well plate, inoculating cells (4000 cells/well), adding 100 μL of medium, incubating at 37° C. overnight; after 24 h, adding lipid nanoparticles diluted with medium (achieving the final concentration of RNA of 10 µg/mL), incubating at 37° C. for 24 h, and then adding 50 μL of specialized luciferase substrate to each well, followed by detection using by a microplate reader (chemiluminescence).
FIG. 1A and FIG. 1B illustrate transfection of lipid nanoparticles of a DOPE group and a DSPC group in NIH3T3 cells according to some embodiments of the present disclosure. Specifically, for compounds PL1, PL4, PL6, PL8, PL10, PL11, PL12, lipid nanoparticles are prepared by DOPE and DSPC, respectively, according to an […] (Example 44). The transfection efficiency of these two groups of lipid nanoparticles in cells is first evaluated, and murine fibroblasts NIH-3T3 are selected for incubation (Example 47), and the results are shown in FIG. 1A and FIG. 1B. […] PL10, PL11, and PL12 all include two tertiary amino groups.

[1] = system: Fluc-mRNA (luciferase expression); experiment: In vivo transfection efficiency of Fluc-mRNA lipid nanoparticles after intramuscular injection; design: species or system mice; settings: for in vivo transfection (expression, FIG. 5): weight ratio lipid nanoparticle/RNA 10:1, DOPE or DSPC group; for in vivo transfection (expression, FIG. 5) / expression in vivo compared with control MC3: 3 μg Fluc-mRNA/mouse; for expression in vivo compared with control MC3 / enhancement of in vivo expression with respect to control MC3: DOPE group, weight ratio 10:1; for Intramuscular injection (PL/MC3) expression strength level: ratio of expression PL/MC3; for enhancement of in vivo expression with respect to control MC3: 3 g Fluc-mRNA/mouse
Method: 6 h after intramuscular injection of mRNA LNPs, mice were injected intraperitoneally with 0.2 mL […] (20 mg/mL PBS solution). After 10 min, mice were anesthetized with isoflurane in oxygen in a ventilated anesthesia room and imaged with an imaging system (IVIS, PerkinElmer), and luminescence was quantified using Living Image software (PerkinElmer).

[2] = Encapsulation efficiency of lipid nanoparticles (RiboGreen assay); format: physicochemical
Method: The total RNA concentration and the encapsulation efficiency were determined using a RiboGreen assay. Determination process included: taking a black 96-well plate, adding 50 μL TE buffer/Triton X to A1-A8/B1-B8, respectively (A1-A6/B1-B6 for the standard curve, A7-8/B7-8 for samples), then adding the RNA TE (Tris-EDTA) dilution solutions (2 ng/μL, 1 ng/μL, 0.5 ng/μL, 0.25 ng/μL, 0.125 ng/μL, 0 ng/μL) to the above wells A1-A6/B1-B6 as the standard curve, adding 50 μL nanoparticle dilution solution to A7-A8/B7-B8, and shaking at 37° C. for 15 min, subsequently, adding 100 μL of RiboGreen solution (diluted 400-fold with TE buffer) to each well, and shaking for 3-5 min, and detecting the fluorescence intensity of each well by a microplate reader at an excitation wavelength of 485 nm and an emission wavelength of 515 nm.

[3] = system: human hepatocellular carcinoma HepG2 cells; experiment: Transfection efficiency of lipid nanoparticles in HepG2 cells; format: cell-based
Method: as §1
FIG. 2A and FIG. 2B illustrate encapsulation efficiency of lipid nanoparticles and cell transfection efficiency according to some embodiments of the present disclosure. FIG. 2A is the encapsulation efficiency of lipid nanoparticles in the DOPE/DSPC groups, and FIG. 2B is the transfection efficiency in HepG2 cells. PL1, PL10, and PL12 from the DOPE group, and PL11 and PL12 from the DSPC group are selected to further explore the transfection efficiency in human hepatocellular carcinoma HepG2 cells. LNP is first prepared using microfluidic approach (Example 44) and the encapsulation efficiency of LNP is measured (Example 46), and the results are shown in FIG. 2A. […] PL10 has the best effect, which is 400-fold of that of LNPs in the control group MC3. The experiment also further illustrates that PL lipids have excellent cell transfection efficiency and stable effect in different cell lines.

[4] = Particle size of lipid nanoparticles (dynamic light scattering); format: physicochemical
Method: The particle size of the lipid nanoparticles and the distribution (size, PDI) were determined by Malvern Zetasizer Nano ZS laser particle sizer according to dynamic light scattering (DLS). The samples were diluted 100-fold with PBS before measurement, and 1 mL was taken for measurement. The measurement was repeated three times in parallel for each sample.

white adipocyte = experiment: White adipocyte administration, expression relative to SM102; format: cell-based; settings: for White adipocyte administration (PL/SM102) expression strength level: ratio of expression PL/SM102; for expression compared with control SM102: white adipocyte administration
From the text: (§2) Finally, the expression levels of lipid nanoparticles with a plurality of tertiary amine groups from the embodiments of the present disclosure after intramuscular injection, white adipocyte administration, and intraperitoneal injection are summarized, and compared with lipid nanoparticles prepared from commercially available cationic lipids MC3 and SM102. […] However, the expression rates of the phosphatidylamine lipids with a plurality of tertiary amine groups from embodiments of the present disclosure are higher than that of SM102.

adipose tissue = experiment: Intraperitoneal injection of Fluc-mRNA LNPs, expression and distribution; format: in vivo, mice; settings: for Intraperitoneal injection (PL/SM102) expression strength level: ratio of expression PL/SM102; for expression compared with control SM102: intraperitoneal injection
Method: FIG. 10 illustrates the effect of Fluc-mRNA LNPs composed of different structural cationic lipids on the mRNA delivery efficiency after intraperitoneal administration according to some embodiments of the present disclosure. Targeting and expression of PL lipids on adipose tissue after intraperitoneal administration is also evaluated. […] That is to say, the PL lipid structure with the plurality of tertiary amino group structures may enhance the selective targeting of visceral adipocytes. […]
as §2

[5] = Summary of the strongest expressions over the administration routes; settings: strongest level of the three administrations
From the text: as §2

joint cavity = experiment: Intra-articular injection of Fluc-mRNA LNPs, luciferase expression in the joint cavity (IVIS); format: in vivo, ICR mice
Method: Images of luciferase expression in the joint cavity are detected with an IVIS imaging system at 6 h, 12 h, 24 h, 48 h, 72 h, and 96 h after intra-articular injection of 2 μg of Fluc-mRNA LNPs (PL10, PL14, and PL17, n=3).

most cells and tissues = settings: reported; cited from earlier work

CCCCC/C=C\C/C=C\CCCCCCCCOP(=O)(NCCCN(C)C)OCCCCCCCC/C=C\C/C=C\CCCCC [PL1]
transfection efficiency relative to MC3 LNP (NIH-3T3 cells; DOPE group LNP): 16 fold | in vivo transfection (expression, FIG. 5) [1]: expressed

CCCCC/C=C\C/C=C\CCCCCCCCOP(=O)(NCCN(CCCCCCCCCCCC)CCCN(C)C)OCCCCCCCC/C=C\C/C=C\CCCCC [PL10]
transfection efficiency relative to MC3 LNP (NIH-3T3 cells; DOPE group LNP): 22 fold | encapsulation efficiency ([2]; DOPE LNP, microfluidic preparation): around 50% | encapsulation efficiency ([2]; weight ratio cationic PL lipid/RNA 5:1 (lowest lipid)): more than 30% | encapsulation efficiency ([2]; weight ratio cationic PL lipid/RNA 15:1 (most lipid)): about 70% | transfection efficiency relative to LNPs of control group MC3 [3]: 400 fold | particle size ([4]; weight ratio lipid nanoparticle/RNA 5:1): 200 nm | particle size ([4]; weight ratio lipid nanoparticle/RNA 15:1): 150 nm | expression in vivo compared with control MC3 [1]: better than that of control MC3 | Intramuscular injection (PL/MC3) expression strength level [1]: A (A: ≥2) | in vivo fluorescence signal ([1]; weight ratio cationic lipid/RNA 15:1, 3 μg Fluc-mRNA): no fluorescence signal | in vivo transfection (expression, FIG. 5) [1]: expressed | in vivo expression relative to MC3 LNP ([1]; weight ratio lipid nanoparticles/RNA 5:1, 3 μg Fluc-mRNA): 3 fold | in vivo expression relative to MC3 LNP ([1]; weight ratio lipid nanoparticles/RNA 10:1, 3 μg Fluc-mRNA): 10 fold | White adipocyte administration (PL/SM102) expression strength level (white adipocyte): C (C: ≥0.1 and <1) | Intraperitoneal injection (PL/SM102) expression strength level (adipose tissue): D (D: <0.1) | Summary of the strongest expressions [5]: A (A: ≥2)

CCCCC/C=C\C/C=C\CCCCCCCCOP(=O)(NCCN(CCCCCCCCCCCC)CCCN(C)C)OCCCC(=O)OCCCCCCCCCCC (stereo not drawn) [PL11]
transfection efficiency relative to MC3 LNP (NIH-3T3 cells; DSPC group LNP): 3 fold | expression in vivo compared with control MC3 [1]: close to that of MC3 | Intramuscular injection (PL/MC3) expression strength level [1]: C (C: ≥0.1 and <1) | in vivo transfection (expression, FIG. 5) [1]: expressed | White adipocyte administration (PL/SM102) expression strength level (white adipocyte): C (C: ≥0.1 and <1) | Summary of the strongest expressions [5]: C (C: ≥0.1 and <1)

CCCCC/C=C\C/C=C\CCCCCCCCOP(=O)(NCCN(CCCCCCCCCC(=O)OC(CC)CCCCC)CCCN(C)C)OCCCC(=O)OCCCCCCCCCCC (stereo not drawn) [PL12]
transfection efficiency relative to MC3 LNP (NIH-3T3 cells; DOPE group LNP): 7 fold | transfection efficiency relative to MC3 LNP (NIH-3T3 cells; DSPC group LNP): 1.5 fold | Intramuscular injection (PL/MC3) expression strength level [1]: A (A: ≥2) | in vivo transfection (expression, FIG. 5) [1]: expressed | White adipocyte administration (PL/SM102) expression strength level (white adipocyte): D (D: <0.1) | Summary of the strongest expressions [5]: A (A: ≥2)

CCCCC/C=C\C/C=C\CCCCCCCCOP(=O)(NCCCN1CCN(CCCN(CCCCCCCCCCCC)CCCCCCCCCCCC)CC1)OCCCCCCCC/C=C\C/C=C\CCCCC [PL14]
nanoparticle particle size ([4]; optimized formulation: decreased proportion of PEG, increased volume of aqueous phase): around 200 nm | expression in vivo compared with control MC3 [1]: better than that of control MC3 | enhancement of in vivo expression with respect to control MC3 [1]: an order of magnitude enhancement | Intramuscular injection (PL/MC3) expression strength level [1]: A (A: ≥2) | in vivo transfection (expression, FIG. 5) [1]: expressed | expression efficiency after intra-articular injection (joint cavity; 2 μg Fluc-mRNA LNPs, 6 h to 96 h): higher and more long-lasting expression efficiencies compared to both PL10 and PL17 LNPs | distribution and expression outside the joint after intra-articular injection (joint cavity; liver): distributed and expressed non-specifically in the liver | White adipocyte administration (PL/SM102) expression strength level (white adipocyte): C (C: ≥0.1 and <1) | Summary of the strongest expressions [5]: A (A: ≥2)

CCCCCCCCCCCCN(CCCCCCCCCCCC)CCCN1CCN(CCCNP(=O)(OCCCCCCCCOC(=O)C(CC)CCCC)OCCCCCCCCOC(=O)C(CC)CCCC)CC1 (stereo not drawn) [PL56]
expression in vivo compared with control MC3 [1]: better than that of control MC3 | enhancement of in vivo expression with respect to control MC3 [1]: an order of magnitude enhancement | Intramuscular injection (PL/MC3) expression strength level [1]: A (A: ≥2) | in vivo transfection (expression, FIG. 5) [1]: expressed | White adipocyte administration (PL/SM102) expression strength level (white adipocyte): B (B: ≥1 and <2) | expression compared with control SM102 (white adipocyte): superior to that of the control SM102 | expression compared with control SM102 (adipose tissue): superior to that of the control SM102 | Intraperitoneal injection (PL/SM102) expression strength level (adipose tissue): A (A: ≥2) | Summary of the strongest expressions [5]: A (A: ≥2)

CCCCCCCCCCCCN(CCCCCCCCCCCC)CCCN1CCN(CCCNP(=O)(OCCCCCCCCOC(=O)C(CC)CCCCCC)OCCCCCCCCOC(=O)C(CC)CCCCCC)CC1 (stereo not drawn) [PL57]
expression in vivo compared with control MC3 [1]: better than that of control MC3 | enhancement of in vivo expression with respect to control MC3 [1]: an order of magnitude enhancement | Intramuscular injection (PL/MC3) expression strength level [1]: A (A: ≥2) | in vivo transfection (expression, FIG. 5) [1]: expressed | White adipocyte administration (PL/SM102) expression strength level (white adipocyte): B (B: ≥1 and <2) | expression compared with control SM102 (white adipocyte): superior to that of the control SM102 | expression compared with control SM102 (adipose tissue): superior to that of the control SM102 | Intraperitoneal injection (PL/SM102) expression strength level (adipose tissue): A (A: ≥2) | Summary of the strongest expressions [5]: A (A: ≥2)

CCCCCCCCCCCCN(CCCCCCCCCCCC)CCCN1CCN(CCCNP(=O)(OCCCCCCCCOC(=O)C(CCCCCC)CCCCCCCC)OCCCCCCCCOC(=O)C(CCCCCC)CCCCCCCC)CC1 (stereo not drawn) [PL58]
Intramuscular injection (PL/MC3) expression strength level [1]: A (A: ≥2) | in vivo transfection (expression, FIG. 5) [1]: expressed | White adipocyte administration (PL/SM102) expression strength level (white adipocyte): C (C: ≥0.1 and <1) | Intraperitoneal injection (PL/SM102) expression strength level (adipose tissue): C (C: ≥0.1 and <1) | Summary of the strongest expressions [5]: A (A: ≥2)

CCCCCCCCCCCOC(=O)CCCCCN(CCO)CCCCCCCC(=O)OC(CCCCCCCC)CCCCCCCC [SM102]
expression compared with MC3 (most cells and tissues): at least ten-fold higher than that of MC3
